Measurements: patent US20230355645A1, “PHARMACEUTICAL COMPOSITION” (priority 2020, published 2023)

Assays:
[1] = test system: IL-8 production by Caco-2 cells; assay: Production of IL-8 by Caco-2 cells following incubation with LPS (ELISA); type: cell-based, human; conditions: Caco-2, after LPS induction, higher dose of CBD
Protocol: (§1) Cells (Caco-2, Ishikawa) were seeded in 6-well plates in culture medium containing MEM (Minimum Essential Medium Eagle) supplemented by 2 mM glutamine, 1% NEAA (Non essential Amino Acid), 10% FBS (Fetal Bovine Serum), penicillin 100 IU/ml and streptomycin 100 ug/ml and allowed to adhere for a minimum of 24 hours and then allowed to grow to confluence. They were then rinsed with PBS (2 ml) and treated with LPS (E. coli) 2 μg/ml in serum-free culture medium, 2 ml per well 3 times after 3 hours. After the last 3 hours of incubation, the test substances (CBD, CBD+HA in serum-free culture medium) were added to the cells and the samples were incubated for another 22 hours. The culture medium was then removed, frozen at −80° C. for downstream determination of pro-inflammatory cytokines (IL-6 and IL-8) by ELISA (Human ELISA Development Kit, Cat. Nos. 900-K16 and 900-K18, PeproTech, Baria, Czech Republic). The results are expressed relative to a control K (cells cultured only with serum-free culture medium), as a percentage of the control, expressed as mean±SEM. The measurement was performed in three independent experiments. KL are cells cultured with LPS. Testing was performed in triplicates.

Caco-2 cells = assay: MTT test, toxicity of CBD towards Caco-2; type: cell-based, human; conditions: CBD 3 and 5 μmol/l, 24 h incubation
Protocol: (§2) Human Caco-2 intestinal cells and Ishikawa endometrial cells were used in an in vitro study of the effect of cannabidiol (CBD) and sodium hyaluronate. In the first phase of the experiment, the safe concentration of CBD was determined based on the results of MTT measurements, a test for the reduction of 3-(4,5-dimethylthiazol-2-yl)-2,5-diphenyltetrazolium bromide (MTT) to the corresponding formazan. The test was performed according to M. D. Maines, L. G. Costa, D. J. Reed, et al. Current protocols in toxicology. New York: John Wiley & Sons. (1998).
(§3) Cells seeded in a 96-well plate at a concentration of 3×10^4 cells/ml, 100 μl/well, which were allowed to adhere for 24 hours, were subsequently incubated for 24 hours with CBD in a concentration range of 100 to 0.78 μmol/l dissolved in serum-free culture medium containing MEM (Minimum Essential Medium Eagle) supplemented by 2 mM glutamine, 1% NEAA (Non essential Amino Acid), and penicillin 100 IU/ml and streptomycin 100 ug/ml. At the end of the incubation period, 100 μl of MTT mixture (0.5 mg/mL in serum-free culture medium) was added for the period of 2 hours. At the end of the incubation period and aspiration of the MTT mixture, 100 μl of DMSO with NH3 (1%, v/v) were added. The absorbance was measured at 540 nm (INFINITE M200 PRO Tecan, Schoeller). […]

[2] = test system: Ishikawa endometrial cells; assay: MTT test, toxicity of CBD towards Ishikawa; type: cell-based, human; conditions: CBD 3 and 5 μmol/l, 24 h incubation
Protocol: as §2, §3

[3] = cited from earlier work
[4] = test system: IL-6 production by Ishikawa cells; assay: Production of IL-6 by Ishikawa cells following incubation with LPS (ELISA); type: cell-based, human; conditions: after LPS induction, both doses (3 and 5 μmol/l)
Protocol: as §1

[5] = especially in solution by exposure to light, atmospheric oxygen and acidic pH; cited from earlier work
[6] = test system: IL-6 production by Caco-2 cells; conditions: Caco-2 model, Couch et al. Clin. Sci. 2017; cited from earlier work
[7] = test system: IL-8 production by Ishikawa cells; assay: Production of IL-8 by Ishikawa cells following incubation with LPS (ELISA); type: cell-based, human; conditions: after LPS induction, both doses of CBD
Protocol: as §1

[8] = test system: IL-6 production by Caco-2 cells; assay: Production of IL-6 by Caco-2 cells following incubation with LPS (ELISA); type: cell-based, human; conditions: Caco-2, after LPS induction, both doses (3 and 5 μmol/l)
Protocol: as §1

[9] = test system: Balb/c 3T3-L1 mouse fibroblasts; assay: Cytotoxicity assay, neutral red incorporation; type: cell-based; conditions: 24 h
Protocol: Balb/c 3T3-L1 mouse fibroblasts (ECACC 86052701) were used in the cytotoxicity assay. The cells were cultured in D-MEM medium (Dulbecco's modification of Eagle's essential medium, Lonza) containing antibiotics (penicillin 100 IU/ml, streptomycin 100 ug/ml), enriched with 10% inactivated calf serum, pH 7.2.
Suppositories prepared according to Example 1 were tested. The positive control (PK) was sodium lauryl sulfate (SLS), the cell control was serum-free culture medium.
The suppository extract was prepared in the ratio of 0.2 g of sample per 1 ml of extracting agent (serum-free D-MEM) according to ČSN EN ISO 10993-12 (2012). The extraction was performed for 24 hours at 37° C., in a closed culture flask under aseptic conditions according to ČSN EN ISO 10993-5 (2012). The resulting 100% extract was further diluted with serum-free culture medium.
Flat bottom tissue culture plates of 8×12 wells were used to culture the cells. The cells were suspended at a concentration of 10^5 cells in 1 ml of the culture medium, inoculating 0.1 ml of the suspension into 1 well. Culture conditions 37° C., 7.5% CO2. Pre-cultivation to obtain a cell culture monolayer was performed 24 hours before exposure to the test material. The cultures were established in quadruplets for the test extracts and for the controls. After 24 hours of precultivation, the culture medium and 0.2 ml of the extract from the test sample, or its serial dilution, respectively. This was followed by culture for 24 hours at 37° C., 7.5% CO2 and staining with neutral red (0.2 ml of neutral red solution per well, incubation for 3 hours, ethanol/acetic acid fixation solution). After completion of the culture, cytotoxicity was determined quantitatively (fluorimetrically) based on the incorporation of neutral red as a vital dye.
The fluorimetric method for determining cytotoxicity is based on the incorporation of a vital dye into living cells and the detection of fluorescence in an excitation (530 nm) and emission filter (590 nm) system using cold light. The degree of cytotoxicity is expressed in % of the detected fluorescence in the culture containing the test extract relative to the control culture in the absence of the test extract. Fluorescence is detected in FSU units of fluorescence intensity. For quantification, the viability of the culture is calculated as follows:
culture viability (%)=(average FSU of the test sample−average FSU of the blank)/(average FSU of the control−average FSU of the blank)
The mean fluorescence values for each group represent the average fluorescence value from all four wells after subtracting the average fluorescence value of the eight wells with fixation solution (blank). The control is serum-free culture medium.

human volunteers = conditions: in vivo

Question: Which results are given for `C=C(C)[C@@H]1CCC(C)=C[C@H]1c1c(O)cc(CCCCC)cc1O` [CBD, Cannabidiol]?
Answer: IL-8 concentration [1]: at the same level; toxicity by MTT values (Caco-2 cells): sub-toxic; toxicity by MTT values [2]: sub-toxic; log P [3]: 6-7; IL-6 levels [4]: significant decrease; stability [5]: prone to degradation; increase in IL-6 concentration compared to the original value after induction of inflammation [6]: more than 70%; IL-8 levels [7]: decrease; IL-6 levels [8]: significant decrease

Question: For `CCCCCCCCCCCCOS(=O)(=O)[O-].[Na+]` [PK-SLS, sodium lauryl sulfate], which “Mean fluorescence (FSU)” value ([9]; Test 1, 1 μg/ml) is on record?
Answer: Its value is 2743.4 FSU.

Question: What about the “Relative to control %” value ([9]; Test 1, 1 μg/ml) of the same molecule?
Answer: Its value is 98.8%.

Question: And the “Mean fluorescence (FSU)” value ([9]; Test 1, 10 μg/ml)?
Answer: The value was 891.1 FSU.

Question: What about the “Relative to control %” value ([9]; Test 1, 10 μg/ml) of the same molecule?
Answer: Its value is 32.1%.

Question: What about the “Mean fluorescence (FSU)” value ([9]; Test 1, 20 μg/ml) of the same molecule?
Answer: Its value is 113.9 FSU.

Question: What about the “Relative to control %” value ([9]; Test 1, 20 μg/ml) of the same molecule?
Answer: Its value is 16.0%.

Question: What about the “Mean fluorescence (FSU)” value ([9]; Test 2, 1 μg/ml) of the same molecule?
Answer: The value was 3187.8 FSU.

Question: What about the “Relative to control %” value ([9]; Test 2, 1 μg/ml) of the same molecule?
Answer: Its value is 98.9%.

Question: What about the “Mean fluorescence (FSU)” value ([9]; Test 2, 10 μg/ml) of the same molecule?
Answer: The value was 542.5 FSU.

Question: And the “Relative to control %” value ([9]; Test 2, 10 μg/ml)?
Answer: Its value is 16.8%.

Question: And the “Mean fluorescence (FSU)” value ([9]; Test 2, 20 μg/ml)?
Answer: Its value is 326.3 FSU.

Question: And the “Relative to control %” value ([9]; Test 2, 20 μg/ml)?
Answer: The value was 10.1%.

Question: What about the “Total number of reactions, Reaction yes/no” value (human volunteers; human) of the same molecule?
Answer: Its value is 30/30.

Question: And the Reaction yes/no (human volunteers)?
Answer: The Reaction yes/no was “YES”.
